{"source": "patent US20240058347A1", "about": "“DOSAGES FOR HDAC TREATMENT WITH REDUCED SIDE EFFECTS” (VIRACTA THERAPEUTICS, INC., priority 2019, published 2024)", "key": {"[1]": {"conditions": "30 mg twice weekly; cited from earlier work"}, "[2]": {"target": "HDAC4 (Homo sapiens, UniProt P56524)", "sequence (P56524 whole entry)": "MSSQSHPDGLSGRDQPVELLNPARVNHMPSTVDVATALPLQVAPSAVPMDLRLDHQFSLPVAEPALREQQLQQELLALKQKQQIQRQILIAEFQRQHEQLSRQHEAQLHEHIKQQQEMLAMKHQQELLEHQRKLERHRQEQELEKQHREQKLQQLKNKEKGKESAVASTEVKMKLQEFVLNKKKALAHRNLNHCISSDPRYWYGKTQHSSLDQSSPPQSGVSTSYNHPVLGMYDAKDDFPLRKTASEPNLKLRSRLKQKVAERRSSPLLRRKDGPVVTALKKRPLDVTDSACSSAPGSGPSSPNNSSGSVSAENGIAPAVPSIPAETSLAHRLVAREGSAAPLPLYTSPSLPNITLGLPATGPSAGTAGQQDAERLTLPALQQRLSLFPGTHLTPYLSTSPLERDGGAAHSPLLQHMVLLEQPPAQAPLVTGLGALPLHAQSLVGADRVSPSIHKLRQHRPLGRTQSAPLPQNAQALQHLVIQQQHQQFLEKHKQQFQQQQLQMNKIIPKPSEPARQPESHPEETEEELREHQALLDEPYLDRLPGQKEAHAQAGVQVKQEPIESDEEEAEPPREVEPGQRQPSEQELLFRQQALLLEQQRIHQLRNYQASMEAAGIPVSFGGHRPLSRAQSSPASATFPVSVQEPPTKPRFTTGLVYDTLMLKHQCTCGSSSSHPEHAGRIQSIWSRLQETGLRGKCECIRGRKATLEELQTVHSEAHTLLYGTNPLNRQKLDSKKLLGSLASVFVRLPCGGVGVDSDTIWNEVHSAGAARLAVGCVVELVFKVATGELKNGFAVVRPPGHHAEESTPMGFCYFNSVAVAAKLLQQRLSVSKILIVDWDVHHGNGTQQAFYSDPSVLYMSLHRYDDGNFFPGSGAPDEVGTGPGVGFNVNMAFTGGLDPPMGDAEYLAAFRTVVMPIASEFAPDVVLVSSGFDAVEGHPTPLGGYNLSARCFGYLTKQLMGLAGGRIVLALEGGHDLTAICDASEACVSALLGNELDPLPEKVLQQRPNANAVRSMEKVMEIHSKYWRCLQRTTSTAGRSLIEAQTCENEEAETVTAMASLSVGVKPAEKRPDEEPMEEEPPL", "test": "in vitro HDAC inhibition assay (fluorescence), HDAC4", "format": "biochemical", "conditions": "read-out: Percentage Inhibition", "description": "(§1) Briefly, all of the compounds are dissolved in DMSO. A series of dilutions of the compounds were prepared with 10% DMSO in HDAC assay buffer and 5 μl of the dilution was added to a 50 μl reaction so that the final concentration of DMSO is 1% in all of reactions. The compounds were pre-incubated in duplicate at RT for 1 hour in a mixture containing HDAC assay buffer, 5 μg BSA, HDAC enzyme (see Table 7) and a the particular HDACi. After 1 hour, the enzymatic reactions were initiated by the addition of HDAC substrate (BPS Bioscience) to a final concentration of 10 μM or 2 μM. The enzymatic reaction proceeded for 30 minutes at 37° C.\n(§2) HDAC activity assays were performed in duplicates at each concentration. The fluorescent intensity data were analyzed using the computer software, Graphpad Prism. In the absence of the compound, the fluorescent intensity (Ft) in each data set was defined as 100% activity. In the absence of HDAC, the fluorescent intensity (Fb) in each data set was defined as 0% activity. The percent activity in the presence of each compound was calculated according to the following equation: % activity=(F−Fb)/(Ft−Fb), where F=the fluorescent intensity in the presence of the compound. […]"}, "[3]": {"target": "T1, HDAC7 (Homo sapiens, UniProt Q8WUI4)", "T1 sequence (Q8WUI4 1-952)": "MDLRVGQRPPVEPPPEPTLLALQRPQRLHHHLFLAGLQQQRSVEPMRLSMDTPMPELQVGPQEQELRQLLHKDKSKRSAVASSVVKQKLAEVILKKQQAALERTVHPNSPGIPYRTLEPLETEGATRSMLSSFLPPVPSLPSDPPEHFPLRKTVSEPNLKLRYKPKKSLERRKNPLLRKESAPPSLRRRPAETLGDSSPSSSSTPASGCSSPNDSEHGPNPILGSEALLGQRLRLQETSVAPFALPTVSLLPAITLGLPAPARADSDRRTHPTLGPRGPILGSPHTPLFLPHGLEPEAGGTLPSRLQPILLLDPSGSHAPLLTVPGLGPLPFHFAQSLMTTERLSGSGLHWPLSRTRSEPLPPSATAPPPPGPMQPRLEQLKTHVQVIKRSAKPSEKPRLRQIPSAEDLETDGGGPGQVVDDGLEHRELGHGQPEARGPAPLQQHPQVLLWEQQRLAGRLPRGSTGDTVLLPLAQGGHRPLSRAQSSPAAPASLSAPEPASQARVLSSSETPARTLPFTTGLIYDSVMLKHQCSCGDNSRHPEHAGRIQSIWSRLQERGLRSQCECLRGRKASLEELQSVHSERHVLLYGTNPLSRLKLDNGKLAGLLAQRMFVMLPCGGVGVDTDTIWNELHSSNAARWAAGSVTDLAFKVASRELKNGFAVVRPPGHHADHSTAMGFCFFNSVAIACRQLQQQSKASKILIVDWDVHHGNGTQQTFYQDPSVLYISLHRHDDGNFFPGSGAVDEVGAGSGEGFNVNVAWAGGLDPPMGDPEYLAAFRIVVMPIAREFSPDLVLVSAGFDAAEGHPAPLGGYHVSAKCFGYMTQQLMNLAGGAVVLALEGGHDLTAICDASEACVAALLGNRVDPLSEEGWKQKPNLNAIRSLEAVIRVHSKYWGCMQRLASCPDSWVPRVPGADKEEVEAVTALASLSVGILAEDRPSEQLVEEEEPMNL", "test": "in vitro HDAC inhibition assay (fluorescence), HDAC7", "format": "biochemical", "conditions": "read-out: Percentage Inhibition", "description": "as §1, §2"}, "[4]": {"target": "HDAC9 (Homo sapiens, UniProt Q9UKV0)", "sequence (Q9UKV0 whole entry)": "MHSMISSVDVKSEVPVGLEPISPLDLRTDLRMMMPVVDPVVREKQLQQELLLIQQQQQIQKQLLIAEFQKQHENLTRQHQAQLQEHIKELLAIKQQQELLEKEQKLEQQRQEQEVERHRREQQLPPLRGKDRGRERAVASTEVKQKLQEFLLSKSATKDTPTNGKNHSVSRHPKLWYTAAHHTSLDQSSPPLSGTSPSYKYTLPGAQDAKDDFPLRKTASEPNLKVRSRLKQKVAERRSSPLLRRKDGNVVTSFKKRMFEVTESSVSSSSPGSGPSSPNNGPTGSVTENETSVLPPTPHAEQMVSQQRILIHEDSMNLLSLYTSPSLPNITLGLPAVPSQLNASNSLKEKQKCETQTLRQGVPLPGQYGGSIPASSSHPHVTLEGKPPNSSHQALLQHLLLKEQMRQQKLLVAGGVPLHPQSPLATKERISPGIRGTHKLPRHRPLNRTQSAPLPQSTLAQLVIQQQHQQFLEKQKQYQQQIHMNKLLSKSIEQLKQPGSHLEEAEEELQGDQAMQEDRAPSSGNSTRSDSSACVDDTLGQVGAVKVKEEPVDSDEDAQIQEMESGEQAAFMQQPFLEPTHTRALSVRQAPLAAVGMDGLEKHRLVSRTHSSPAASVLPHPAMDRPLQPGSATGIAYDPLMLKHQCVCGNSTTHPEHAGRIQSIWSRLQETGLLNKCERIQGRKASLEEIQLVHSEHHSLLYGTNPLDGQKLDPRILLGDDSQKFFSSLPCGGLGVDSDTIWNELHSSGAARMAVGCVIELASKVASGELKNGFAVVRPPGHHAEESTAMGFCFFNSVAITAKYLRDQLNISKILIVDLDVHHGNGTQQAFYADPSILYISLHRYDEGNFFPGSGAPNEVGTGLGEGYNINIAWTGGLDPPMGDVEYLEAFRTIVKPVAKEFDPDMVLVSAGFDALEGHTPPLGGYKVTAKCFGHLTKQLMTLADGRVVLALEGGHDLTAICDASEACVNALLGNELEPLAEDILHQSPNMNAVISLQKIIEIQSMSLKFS", "test": "in vitro HDAC inhibition assay (fluorescence), HDAC9", "format": "biochemical", "conditions": "read-out: Percentage Inhibition", "description": "as §1, §2"}, "[5]": {"target": "T2, HDAC11 (Homo sapiens, UniProt Q96DB2)", "T2 sequence (Q96DB2 1-347)": "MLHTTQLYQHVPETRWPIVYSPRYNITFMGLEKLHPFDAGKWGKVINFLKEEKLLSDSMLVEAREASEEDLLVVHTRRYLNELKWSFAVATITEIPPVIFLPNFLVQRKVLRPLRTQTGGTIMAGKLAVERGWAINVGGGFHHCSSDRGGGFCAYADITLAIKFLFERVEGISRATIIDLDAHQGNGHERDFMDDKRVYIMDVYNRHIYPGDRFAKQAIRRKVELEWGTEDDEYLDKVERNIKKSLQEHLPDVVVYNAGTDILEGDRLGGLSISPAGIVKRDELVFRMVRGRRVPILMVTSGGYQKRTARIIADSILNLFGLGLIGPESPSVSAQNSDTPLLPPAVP", "test": "in vitro HDAC inhibition assay (fluorescence), HDAC11", "format": "biochemical", "conditions": "read-out: Percentage Inhibition", "description": "as §1, §2"}, "[6]": {"conditions": "in vivo; cited from earlier work"}, "[7]": {"conditions": "1,000 mg/m^2 IV once daily on days 1 to 5 of a 21-day cycle; cited from earlier work"}}}
{"molecule": "Nc1cc(F)ccc1NC(=O)c1ccc(CNC(=O)/C=C/c2cccnc2)cc1", "note": "[Chidamide, chidamide]", "values": [{"measurement": "SAE rate", "setting": "[1]", "result": 5, "unit": "%"}]}
{"molecule": "C/C=C1\\NC(=O)[C@H]2CSSCC/C=C/[C@H](CC(=O)N[C@H](C(C)C)C(=O)N2)OC(=O)[C@H](C(C)C)NC1=O", "note": "[FK228, romidepsin, reference compound]", "values": [{"measurement": "inhibition at 100 µM", "setting": "[2]", "result": "< 17", "unit": "%"}, {"measurement": "inhibition at 100 µM", "setting": "[3]", "result": "< 17", "unit": "%"}, {"measurement": "inhibition at 100 µM", "setting": "[4]", "result": "< 17", "unit": "%"}, {"measurement": "inhibition at 100 µM", "setting": "[5]", "result": "< 17", "unit": "%"}]}
{"molecule": "Nc1ccccc1NC(=O)c1ccc(CNC(=O)OCc2cccnc2)cc1", "note": "[MS-275, entinostat]", "values": [{"measurement": "elimination half-life", "setting": "[6]", "result": "approximately 36 hours"}]}
{"molecule": "O=C(/C=C/c1cccc(S(=O)(=O)Nc2ccccc2)c1)NO", "note": "[belinostat]", "values": [{"measurement": "Grade 3 or 4 adverse effect rate", "setting": "[7]", "result": 47, "unit": "%"}]}
